From PMC3433420 (PLoS ONE, 2012)
Residues, ends and D or L forms follow the SMILES beside them.

Target: PLCG2-NC tandem SH2 domains (Homo sapiens, UniProt P16885)
Assay: FP saturation binding assay

PLCG2-NC tandem SH2 domains, sequence (P16885 532-735 limits assumed): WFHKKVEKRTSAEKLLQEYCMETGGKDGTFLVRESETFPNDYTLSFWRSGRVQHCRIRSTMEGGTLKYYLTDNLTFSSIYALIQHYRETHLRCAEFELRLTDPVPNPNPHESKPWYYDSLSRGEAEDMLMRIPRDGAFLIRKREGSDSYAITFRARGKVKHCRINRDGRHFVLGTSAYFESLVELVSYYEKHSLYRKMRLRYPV

SMILES: CC(C)C[C@H](NC(=O)[C@H](CC(N)=O)NC(=O)[C@@H](N)CC(=O)O)C(=O)N[C@@H](Cc1ccc(O)cc1)C(=O)N[C@@H](Cc1ccc(OP(=O)(O)O)cc1)C(=O)N[C@@H](Cc1c[nH]c2ccccc12)C(=O)N[C@@H](CC(=O)O)C(=O)N[C@@H](CCC(N)=O)C(=O)N[C@@H](CC(=O)O)C(=O)N1CCC[C@H]1C(=O)N1CCC[C@H]1C(=O)N[C@@H](CCC(=O)O)C(=O)N[C@@H](CC(=O)O)C(=O)O [ErbB2 1222 13-mer] (HELM PEPTIDE1{D.N.L.Y.[O=C([C@H](Cc1ccc(OP(=O)(O)O)cc1)N[*:1])[*:2]].W.D.Q.D.P.P.E.D}$$$$V2.0)
- Kd: 6.4 µM
